Results: patent US20230365571A1, “COMPOUNDS AND COMPOSITIONS AS Sppl2a INHIBITORS” (Novartis AG, priority 2020, published 2023)

What was measured:
[1] = biological target: T1, human SPPL2a (Homo sapiens, UniProt Q8TCT8); test: Sppl2a RGA (reporter gene assay) in HEK293 cells; format: cell-based; set-up: expressed in transfected cells; host or cells: HEK293 (transient); conditions: NT-TNF-VP16-Gal4 substrate, Gal4-luciferase reporter, 24 h
T1 sequence (Q8TCT8 26-520): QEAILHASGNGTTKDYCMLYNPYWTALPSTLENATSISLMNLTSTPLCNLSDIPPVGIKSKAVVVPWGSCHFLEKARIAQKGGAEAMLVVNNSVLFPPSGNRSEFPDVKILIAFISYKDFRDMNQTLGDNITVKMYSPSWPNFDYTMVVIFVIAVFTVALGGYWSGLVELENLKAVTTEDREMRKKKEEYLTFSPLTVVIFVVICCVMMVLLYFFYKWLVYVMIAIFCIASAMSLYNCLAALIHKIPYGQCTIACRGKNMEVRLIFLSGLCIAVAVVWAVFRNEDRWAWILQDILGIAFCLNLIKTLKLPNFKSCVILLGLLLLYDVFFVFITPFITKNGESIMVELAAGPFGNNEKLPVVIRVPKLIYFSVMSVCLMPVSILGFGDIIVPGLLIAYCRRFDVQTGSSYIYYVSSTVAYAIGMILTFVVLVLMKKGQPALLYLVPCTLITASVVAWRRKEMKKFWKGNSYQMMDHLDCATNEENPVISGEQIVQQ
Excerpt: Sppl2a RGA (Reporter Gene Assay):
Sppl2a is an intramembrane aspartyl protease with similarities to presenilin, the active subunit of the γ-secretase complex. The assay is based on the coupling of the proteolytic degradation of a membrane bound synthetic substrate (VP16-Gal4 fusion protein with the N-terminal domain of TNF alpha), which migrates to the nucleus upon cleavage, with the Gal4 driven expression of luciferase. Inhibition of Sppl2a results in a reduction of nuclear VP16-Gal4 activator and therefore in a reduction of the production of luciferase. The luciferase dependent-luminescence is plotted against the concentrations of compound to generate a dose response curve, which allows the calculation of the IC50 value.
DNA vectors encoding human Sppl2a, NT-TNF-VP16-Gal4 and a Gal4-luciferase reporter were transiently transfected in HEK293 cells. In a typical experiment 5 μg plasmid for SPPL2a, 10 μg plasmid encoding the reporter Gal4-luciferase and 20 μg plasmid encoding the substrate NT-TF-VP16-Gal4 were mixed together. The DNA mixture was combined with 107 μl FuGENE® (Promega), 735 μl Opti-MEM® (Life Technologies) and incubated for 5 minutes at RT. To this mixture 20 mL of concentrated HEK293 cells were added and thoroughly mixed. The cell suspension was distributed to a white solid 384 well plate. Within 5 hours, 50 nl of compound in DMSO was stamped into the wells via pintool. The plate was incubated for 24 h at 37° C., 5% CO2 in a humidified incubator, before the addition of 25 μl Bright Glo. After incubation at RT for 5 min, the plate was transferred to a luminometer and the luminescence was measured. The IC50 was determined by plotting compound concentration vs. normalized luminescence values.

[2] = biological target: T1, human SPPL2a; test: Sppl2a TL (translocation) imaging assay in U-2 OS cells; format: cell-based; set-up: expressed in transfected cells; conditions: U-2 OS cells expressing human SPPL2a and EGFP-TNFα(aa1-76) NTF substrate; 24 h
Experimental: SPPL2a, TL in U-2 OS Cells. Stable U-2 OS cell lines expressing human SPPL2a constitutively and a EGFP-labeled TNFα(aa1-76) NTF substrate under a doxycycline-regulated promoter were used for the imaging assays. Cells were seeded at 3000 cells/30 μL/384-well in DMEM/GlutaMax™-I (Invitrogen) supplemented with tetracycline-free 10% FBS (Amimed) and incubated at 37° C., 5% CO2 for 3-4 h. Subsequently, 3.3 μL of inhibitors, prediluted in doxycycline-containing medium for 11-point concentration-response curves, were added to each well using a CyBi well liquid handling device (Cybio AG, Jena, Germany) to result in final inhibitor concentrations ranging from 100 μM to 1 nM (final DMSO concentration 0.9% (v/v)) and 5 μg/mL doxycycline). The cells were incubated with inhibitor at 37° C., 5% CO2 for 24 h. Thereafter cell were fixed in 4% PFA/PBS and in parallel, nuclei were stained with Hoechst (Invitrogen) 1:5000 in PBS for 30 min. The plates were imaged using a Cellomics ArrayScan VTI HCS reader with 10×/0.3NA objective (Thermo Fisher Scientific, USA). Six images per well were acquired. Images for the EGFP signal (Ex395, Em509) and the Hoechst nuclear dye (Ex350, Em425) were acquired simultaneously with image analysis using the “Nuclear Translocation” assay algorithm of the Cellomics ArrayScan software. Nuclei were detected based on the Hoechst staining, the nuclear mask was transferred to the EGFP channel, and a 4 pixel wide cytoplasm ring region was defined around the nucleus. The intensity of the EGFP signal was measured both in the nuclear and in the cytoplasm ring region of each individual cell (in general 800-1000 individual cells were analyzed per well), and the difference of the average nuclear versus average cytoplasmic intensity of the EGFP signal was calculated (“CircRingAvgIntenDiffCh2”=“CircAvgIntenCh2”−“RingAvgIntenCh2”). Additionally the number of cells were acquired (feature termed “ValidCellCount”) and used to calculate cell toxicity (CC50). Percent inhibition was calculated relative to the positive (0.5 μM LY-411,575=100% inhibition) and negative (DMSO=0% inhibition) controls. The IC50 value was calculated from the plot of percentage of inhibition vs inhibitor concentration using nonlinear regression analysis software, e.g., Origin (OriginLab Corp.).

SMILES	IC50 [1] [nM]	IC50 [2] [nM]
Cc1nc(Cl)c(C(=O)NC[C@H](C(=O)N[C@@H]2C(=O)N3CCCN3Cc3c(F)cccc32)C2CC2)s1 [Example 55, 4-Chloro-N-((R)-2-cyclopropyl-3-(((S)-6-fluoro-11-oxo-2,3,10,11-tetrahydro-1H,5H-benzo[d]pyrazolo [1,2-a][1,2]diazepin-10-yl)amino)-3-oxopropyl)-2-methylthiazole-5-carboxamide]	152	163
CC[C@H](CNC(=O)c1sc(C2=CCCC2)nc1Cl)C(=O)N[C@@H]1C(=O)N2CCCN2C(=O)c2ccccc21 [Example 28, 4-Chloro-2-(cyclopent-1-en-1-yl)-N-((R)-2-(((S)-5,11-dioxo-2,3,10,11-tetrahydro-1H,5H-benzo[d]pyrazolo [1,2-a][1,2]diazepin-10-yl)carbamoyl)butyl) thiazole-5-carboxamide]	88	28
CC[C@H](CNC(=O)c1sc(-c2ccc(OC(F)F)nc2)nc1Cl)C(=O)N[C@@H]1C(=O)N2CCCN2C(=O)c2ccccc21 [Example 37, 4-Chloro-2-(6-(difluoromethoxy)pyridin-3-yl)-N-((R)-2-(((S)-5,11-dioxo-2,3,10,11-tetrahydro-1H,5H-benzo[d]pyrazolo [1,2-a][1,2]diazepin-10-yl)carbamoyl)butyl) thiazole-5-carboxamide]	32	53
Cc1nc(-c2ccc(C(F)(F)F)nc2)sc1C(=O)NC[C@H](C(=O)N[C@@H]1C(=O)N2CCCN2C(=O)c2ccccc21)C(F)(F)F [Example 38, N-((R)-2-(((S)-5,11-Dioxo-2,3,10,11-tetrahydro-1H,5H-benzo[d]pyrazolo [1,2-a][1,2]diazepin-10-yl)carbamoyl)-3,3,3-trifluoropropyl)-4-methyl-2-(6-(trifluoromethyl)pyridin-3-yl)thiazole-5-carboxamide]	43	54
CC[C@H](CNC(=O)c1sc(C2CC2)nc1C(F)(F)F)C(=O)N[C@@H]1C(=O)N2CC3(CC3)CN2C(=O)c2ccccc21 [Example 59, 2-Cyclopropyl-N-((R)-2-(((S)-5,11-dioxo-10,11-dihydro-1H,3H,5H-spiro[benzo[d]pyr-azolo[1,2-a][1,2]diazepine-2,1′-cyclopropan]-10-yl)carbamoyl)butyl)-4-(trifluoromethyl) thiazole-5-carboxamide]	661	555
Cc1ccn(C)c1C(=O)NC[C@@H](C)C(=O)N[C@@H]1C(=O)N2CCCN2Cc2ccccc21 [Example 60, 1,3-dimethyl-N-((R)-2-methyl-3-oxo-3-(((S)-11-oxo-2,3,10,11-tetrahydro-1H,5H-benzo[d]pyrazolo [1,2-a][1,2]diazepin-10-yl)amino)propyl)-1H-pyrrole-2-carboxamide]	277	580

Results, then the compound that gave them:

IC50 [1] [nM]	IC50 [2] [nM]	SMILES
11	12	Cc1nn(-c2ccc(C(F)(F)F)nc2)cc1NC(=O)C[C@@H](C)C(=O)N[C@@H]1C(=O)N2CCCN2Cc2ccccc21 [Example 92, (R)-2-Methyl-N^4-(3-methyl-1-(6-(trifluoromethyl)pyridin-3-yl)-1H-pyrazol-4-yl)-N^1-((S)-11-oxo-2,3,10,11-tetrahydro-1H,5H-benzo[d]pyrazolo [1,2-a][1,2]diazepin-10-yl)succinamide]
15	13	COc1ccc(-c2cc(NC(=O)C[C@@H](C)C(=O)N[C@@H]3C(=O)N4CCCN4Cc4ccccc43)n(C)n2)cn1 [Example 97, (R)-N^4-(3-(6-Methoxypyridin-3-yl)-1-methyl-1H-pyrazol-5-yl)-2-methyl-N^1-((S)-11-oxo-2,3,10,11-tetrahydro-1H,5H-benzo[d]pyrazolo [1,2-a][1,2]diazepin-10-yl)succinamide]
4	10	CCc1cc(-c2cc(NC(=O)C[C@@H](C)C(=O)N[C@@H]3C(=O)N4CCCN4Cc4ccccc43)n(C)n2)on1 [Example 86, (R)-NA-(3-(3-Ethylisoxazol-5-yl)-1-methyl-1H-pyrazol-5-yl)-2-methyl-N^1-((S)-11-oxo-2,3,10,11-tetrahydro-1H,5H-benzo[d]pyrazolo [1,2-a][1,2]diazepin-10-yl)succinamide]
